Results: patent publication US10544106B2, “Certain chemical entities, compositions, and methods” (NeuPharma, Inc., priority 2016, dated 2020)

Target: BTK (Homo sapiens (Human), UniProt Q06187)
Test: Z'-LYTE kinase inhibition assay against BTK
Type: biochemical
Conditions: for inhibition at 0.1 µM: compound at 100 nM, ATP concentration at Km; for IC50: series of concentrations, GraphPad Prism 5
How it was run: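 Compounds were titrated over 10 points (3-fold steps, 1% DMSO) against BTK (1.04-10.4 ng) using Tyr 01 substrate at 2 μM and ATP at Km, pH 7.5 HEPES buffer with MgCl2 and EGTA. After one hour each of reaction and development at room temperature, fluorescence gave percent inhibition and IC50.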

BTK, sequence (Q06187 whole entry): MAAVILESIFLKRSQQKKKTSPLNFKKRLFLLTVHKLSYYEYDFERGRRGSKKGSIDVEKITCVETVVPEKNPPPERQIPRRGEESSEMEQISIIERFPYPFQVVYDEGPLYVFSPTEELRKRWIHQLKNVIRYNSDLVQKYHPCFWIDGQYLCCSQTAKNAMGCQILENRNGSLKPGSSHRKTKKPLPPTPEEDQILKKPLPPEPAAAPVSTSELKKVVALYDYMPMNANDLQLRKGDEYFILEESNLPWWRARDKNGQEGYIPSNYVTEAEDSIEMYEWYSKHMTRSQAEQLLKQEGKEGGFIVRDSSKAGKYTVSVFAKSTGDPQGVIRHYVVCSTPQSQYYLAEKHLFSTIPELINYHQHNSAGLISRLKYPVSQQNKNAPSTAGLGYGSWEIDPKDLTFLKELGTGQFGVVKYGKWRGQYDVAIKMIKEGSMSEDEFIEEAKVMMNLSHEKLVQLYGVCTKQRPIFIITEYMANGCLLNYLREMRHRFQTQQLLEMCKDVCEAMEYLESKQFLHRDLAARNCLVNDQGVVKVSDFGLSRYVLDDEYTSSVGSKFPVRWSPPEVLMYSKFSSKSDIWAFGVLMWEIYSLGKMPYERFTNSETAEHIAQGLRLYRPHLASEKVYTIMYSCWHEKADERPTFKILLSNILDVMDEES

Molecule | inhibition at 0.1 µM | IC50
CC#CC(=O)N1CCC(c2nc(-c3ccc(Oc4cc(OC)ccn4)cc3)n3c(N)nccc23)C1 (centres unmarked) [C214, 1-(3-(5-amino-3-(4-((4-methoxypyridin-2-yl)oxy)phenyl)imidazo[1,5-c]pyrimidin-1-yl)pyrrolidin-1-yl)but-2-yn-1-one] | > 50% | –
C=CC(=O)N1CCC(c2cc(-c3ccc(Oc4ccccn4)cc3F)cc3cncnc23)C1 (centres unmarked) [C114, 1-(3-(6-(2-fluoro-4-(pyridin-2-yloxy)phenyl)quinazolin-8-yl)pyrrolidin-1-yl)prop-2-en-1-one] | > 50% | –
4-(5-Amino-1-(1-(but-2-ynoyl)pyrrolidin-3-yl)imidazo[1,5-c]pyrimidin-3-yl)-N-(pyridin-2-yl)-3-(trifluoromethyl)benzamide [C248] | – | < 100 nM
C=CC(=O)Nc1cccc(-c2cc(-c3ccc(C(=O)Nc4ccccn4)cc3Cl)c(N)c3cncnc23)c1 [C190, 4-(8-(3-acrylamidophenyl)-5-aminoquinazolin-6-yl)-3-chloro-N-(pyridin-2-yl)benzamide] | > 50% | < 100 nM
C=CC(=O)N1CCC(n2c(-c3ccccc3)nc3cnc(N)nc32)C1 (centres unmarked) [C015, 1-(3-(2-amino-8-phenyl-9H-purin-9-yl)pyrrolidin-1-yl)prop-2-en-1-one] | < 50% | –
CC#CC(=O)N1CCC(c2nc(-c3ccc(C(=O)Nc4cc(C5CC5)ccn4)cc3)n3c(N)nccc23)C1 (centres unmarked) [C239, 4-(5-amino-1-(1-(but-2-ynoyl)pyrrolidin-3-yl)imidazo[1,5-c]pyrimidin-3-yl)-N-(4-cyclopropylpyridin-2-yl)benzamide] | – | < 100 nM
C=CC(=O)Nc1cccc(-c2cc(-c3ccc(C(=O)Nc4cc(C#N)ccn4)cc3Cl)cc3cncnc23)c1 [C122, 4-(8-(3-acrylamidophenyl)quinazolin-6-yl)-3-chloro-N-(4-cyanopyridin-2-yl)benzamide] | > 50% | < 100 nM
C=CC(=O)Nc1cccc(-c2cc(-c3ccc(Oc4ccccc4)nc3)cc3cncnc23)c1 [C061, N-(3-(6-(6-phenoxypyridin-3-yl)quinazolin-8-yl)phenyl)acrylamide] | > 50% | < 100 nM
C=CC(=O)Nc1cccc(-c2cc(-c3cccnc3)cc3cncnc23)c1 [C007, N-(3-(6-(pyridin-3-yl)quinazolin-8-yl)phenyl)acrylamide] | > 50% | < 100 nM
C=CC(=O)N1CCC(c2ccc(-c3ccc(C(=O)Nc4ccccn4)cc3)c3cncnc23)C1 (centres unmarked) [C049, 4-(8-(1-acryloylpyrrolidin-3-yl)quinazolin-5-yl)-N-(pyridin-2-yl)benzamide] | < 50% | –
C=CC(=O)Nc1cccc(-c2cc(-c3ccc(C(=O)Nc4cc(C(F)(F)F)ccn4)c(F)c3)cc3cncnc23)c1 [C127, 4-(8-(3-acrylamidophenyl)quinazolin-6-yl)-2-fluoro-N-(4-(trifluoromethyl)pyridin-2-yl)benzamide] | < 50% | –
C=CC(=O)N1CCC(c2cc(-c3ccc(C(=O)Nc4cccnc4)cc3)cc3cncnc23)C1 (centres unmarked) [C115, 4-(8-(1-acryloylpyrrolidin-3-yl)quinazolin-6-yl)-N-(pyridin-3-yl)benzamide] | < 50% | –
C=CC(=O)Nc1cccc(-c2cc(-c3ccc(Oc4ccc(Cl)cc4)nc3)cc3cncnc23)c1 [C072, N-(3-(6-(6-(4-chlorophenoxy)pyridin-3-yl)quinazolin-8-yl)phenyl)acrylamide] | < 50% | –
C=CC(=O)Nc1cccc(-c2cc(-c3ccc(C(=O)Nc4cc(C(F)(F)F)ccn4)cc3)cc3cncnc23)c1 [C137, 4-(8-(3-acrylamidophenyl)quinazolin-6-yl)-N-(4-(trifluoromethyl)pyridin-2-yl)benzamide] | > 50% | < 100 nM
C=CC(=O)Nc1cccc(-c2cc(-c3ccc(Oc4ccccn4)cc3Cl)c(N)c3cncnc23)c1 [C203, N-(3-(5-amino-6-(2-chloro-4-(pyridin-2-yloxy)phenyl)quinazolin-8-yl)phenyl)acrylamide] | > 50% | –
C=CC(=O)Nc1cccc(-c2cc(-c3ccc(C(=O)Nc4cccc(F)c4)nc3)cc3cncnc23)c1 [C092, 5-(8-(3-acrylamidophenyl)quinazolin-6-yl)-N-(3-fluorophenyl)picolinamide] | > 50% | –
C=CC(=O)Nc1cccc(-c2cc(-c3ccc(Oc4ccccn4)cc3)c(N)c3cncnc23)c1 [C179, N-(3-(5-amino-6-(4-(pyridin-2-yloxy)phenyl)quinazolin-8-yl)phenyl)acrylamide] | < 50% | –
C=CC(=O)Nc1cccc(-c2cc(-c3ccncc3)cc3cncnc23)c1 [C006, N-(3-(6-(pyridin-4-yl)quinazolin-8-yl)phenyl)acrylamide] | > 50% | < 100 nM
C=CC(=O)Nc1cccc(-c2cc(-c3ccc(C(=O)Nc4cc(C#N)ccn4)cc3)cc3cncnc23)c1 [C109, 4-(8-(3-acrylamidophenyl)quinazolin-6-yl)-N-(4-cyanopyridin-2-yl)benzamide] | < 50% | –

Molecule | inhibition at 0.1 µM | IC50
C=CC(=O)N1CCCC(c2cc(-c3ccccc3)cc3cncnc23)C1 (centres unmarked) [C020, 1-(3-(6-phenylquinazolin-8-yl)piperidin-1-yl)prop-2-en-1-one] | < 50% | –
C=CC(=O)N1CCC(c2cc(-c3ccc(C(=O)Nc4ccc(C(F)(F)F)cn4)cc3)cc3cncnc23)C1 (centres unmarked) [C142, 4-(8-(1-acryloylpyrrolidin-3-yl)quinazolin-6-yl)-N-(5-(trifluoromethyl)pyridin-2-yl)benzamide] | < 50% | –
C=CC(=O)Nc1cccc(-c2cc(-c3cccc(Nc4ccccc4)c3)cc3cncnc23)c1 [C017, N-(3-(6-(3-(phenylamino)phenyl)quinazolin-8-yl)phenyl)acrylamide] | > 50% | –
C=CC(=O)N1CCC(c2cc(-c3ccc(C(=O)Nc4ccccc4)cc3)cc3cncnc23)C1 (centres unmarked) [C062, 4-(8-(1-acryloylpyrrolidin-3-yl)quinazolin-6-yl)-N-phenylbenzamide] | < 50% | –
C=CC(=O)N1CCC(c2cc(-c3ccc(C(=O)Nc4cc(C#N)ccn4)cc3F)n3cnccc23)C1 (centres unmarked) [C151, 4-(5-(1-acryloylpyrrolidin-3-yl)pyrrolo[1,2-c]pyrimidin-7-yl)-N-(4-cyanopyridin-2-yl)-3-fluorobenzamide] | < 50% | –
C=CC(=O)N1CCC(c2cc(-c3ccccc3)cc3cnc(N)nc23)C1 (centres unmarked) [C083, 1-(3-(2-amino-6-phenylquinazolin-8-yl)pyrrolidin-1-yl)prop-2-en-1-one] | < 50% | –
C=CC(=O)N1CCCC(c2ccc(-c3ccc(C(=O)Nc4ccccn4)cc3)c3cncnc23)C1 (centres unmarked) [C037, 4-(8-(1-acryloylpiperidin-3-yl)quinazolin-5-yl)-N-(pyridin-2-yl)benzamide] | < 50% | –
C=CC(=O)N1CCC(c2nc(-c3ccc(C(=O)Nc4cc(C(F)(F)F)ccn4)cc3)n3c(N)nccc23)C1 (centres unmarked) [C242, 4-(1-(1-acryloylpyrrolidin-3-yl)-5-amino-imidazo[1,5-c]pyrimidin-3-yl)-N-(4-(trifluoromethyl)pyridin-2-yl)benzamide] | – | < 100 nM
C=CC(=O)Nc1cccc(-c2cc(-c3ccc(C(=O)Nc4cc(C5CC5)ccn4)cc3F)cc3cncnc23)c1 [C153, 4-(8-(3-acrylamidophenyl)quinazolin-6-yl)-N-(4-cyclopropylpyridin-2-yl)-3-fluorobenzamide] | > 50% | < 100 nM
C=CC(=O)Nc1cccc(-c2cc(-c3ccc(Oc4ccccc4F)nc3)cc3cncnc23)c1 [C096, N-(3-(6-(6-(2-fluorophenoxy)pyridin-3-yl)quinazolin-8-yl)phenyl)acrylamide] | > 50% | –
C=CC(=O)N1CCC(c2cc(-c3ccc(Oc4cc(C(F)(F)F)ccn4)cc3)n3cnccc23)C1 (centres unmarked) [C143, 1-(3-(7-(4-((4-(trifluoromethyl)pyridin-2-yl)oxy)phenyl)pyrrolo[1,2-c]pyrimidin-5-yl)pyrrolidin-1-yl)prop-2-en-1-one] | < 50% | –
C=CC(=O)N1CCC(c2cc(-c3ccc(C(=O)Nc4cc(C5CC5)ccn4)cc3)n3cnccc23)C1 (centres unmarked) [C164, 4-(5-(1-acryloylpyrrolidin-3-yl)pyrrolo[1,2-c]pyrimidin-7-yl)-N-(4-cyclopropylpyridin-2-yl)benzamide] | > 50% | –
C=CC(=O)N1CCC(c2cc(-c3ccc(C(=O)Nc4cc(C(F)(F)F)ccn4)cc3)n3cnccc23)C1 (centres unmarked) [C136, 4-(5-(1-acryloylpyrrolidin-3-yl)pyrrolo[1,2-c]pyrimidin-7-yl)-N-(4-(trifluoromethyl)pyridin-2-yl)benzamide] | > 50% | –
C=CC(=O)N1CCC(c2cc(-c3ccc(Oc4ccccn4)cc3F)n3cnccc23)C1 (centres unmarked) [C159, 1-(3-(7-(2-fluoro-4-(pyridin-2-yloxy)phenyl)pyrrolo[1,2-c]pyrimidin-5-yl)pyrrolidin-1-yl)prop-2-en-1-one] | < 50% | –
C=CC(=O)N1CCC(c2nc(-c3ccc(Oc4ccccn4)cc3)n3c(N)nccc23)C1 (racemic) [C224, (R/S)-1-(3-(5-amino-3-(4-(pyridin-2-yloxy)phenyl)imidazo[1,5-c]pyrimidin-1-yl)pyrrolidin-1-yl)prop-2-en-1-one] | > 50% | < 100 nM
C=CC(=O)N1CCCC(c2cc(-c3ccc(Oc4ccccc4)cc3)cc3c(N)ncnc23)C1 (centres unmarked) [C030, 1-(3-(4-amino-6-(4-phenoxyphenyl)quinazolin-8-yl)piperidin-1-yl)prop-2-en-1-one] | < 50% | –
C=CC(=O)Nc1cccc(-c2cc(-c3ccc(C(=O)Nc4cc(C(F)(F)F)ccn4)cc3Cl)cc3cncnc23)c1 [C116, 4-(8-(3-acrylamidophenyl)quinazolin-6-yl)-3-chloro-N-(4-(trifluoromethyl)pyridin-2-yl)benzamide] | > 50% | < 100 nM
C=CC(=O)Nc1cccc(-c2cc(-c3ccc(C(=O)Nc4cc(C(F)(F)F)ccn4)cc3F)cc3cncnc23)c1 [C129, 4-(8-(3-acrylamidophenyl)quinazolin-6-yl)-3-fluoro-N-(4-(trifluoromethyl)pyridin-2-yl)benzamide] | > 50% | < 100 nM
